Some results are limits rather than exact numbers.

One assay concerns SH-SY5Y. Put plainly: Cytotoxicity against human SH-SY5Y cells after 24 hrs by MTT assay. It counts as functional, cell-based.
The nature of assay [1]: Cytotoxicity against human HELF cells after 24 hrs by MTT assay. The assay is classed as cell-based.
A further assay deals with BGC-823. Description: Cytotoxicity against human BGC823 cells after 24 hrs by MTT assay. It counts as functional, cell-based. Particulars: BGC-823, 24 h.
In another assay the test system is HepG2. Put plainly: cells. The conditions noted are these: Homo sapiens, HepG2, 24 h.
For another assay, the system named is HeLa. Description: cells. The conditions noted are these: Homo sapiens, 24 h.
Assay [2] has as its system H22. Description: animal or person. The conditions noted are these: Mus musculus, H22, ip, 168 h, read-out: INH.
Description: Antitumor activity against mouse H22 cells xenografted in kunming mouse assessed as inhibition of tumor growth at 15 mg/kg, ip for 7 days
Assay [3] has as its system H22. Put plainly: Antitumor activity against mouse H22 cells xenografted in kunming mouse assessed as inhibition of tumor growth at 150 mg/kg, ip for 7 days. It counts as functional. Particulars: 168 h, route intraperitoneal.

Description for HeLa: Cytotoxicity against human HeLa cells after 24 hrs by MTT assay
Description for HepG2: Cytotoxicity against human HepG2 cells after 24 hrs by MTT assay

On to `C[C@H]1[C@H](C)CC[C@]2(C(=O)OCCCCO[N+](=O)[O-])CC[C@]3(C)C(=CC[C@@H]4[C@@]5(C)CC[C@H](O)C(C)(C)[C@@H]5CC[C@]43C)[C@H]12`, for which the IC50 (in the assay on SH-SY5Y; in assay [1]; in the assay on BGC-823; in the assay with HepG2; in the assay with HeLa) was > 100 µM in each case.
As for `C[C@H]1[C@H](C)CC[C@]2(C(=O)N3CCN(CCOCCO)CC3)CC[C@]3(C)C(=CC[C@@H]4[C@@]5(C)CC[C@H](O)C(C)(C)[C@@H]5CC[C@]43C)[C@H]12`, the half-inhibitory concentration (IC50) in the assay with SH-SY5Y was found to be 30.3 µM; in assay [1], 28.1 µM; in the assay on BGC-823, 35 µM; with HepG2, 36.7 µM; in the assay with HeLa, 23.8 µM.
Turning to `C[C@H]1[C@H](C)CC[C@]2(C(=O)NC(CO)C(=O)O)CC[C@]3(C)C(=CC[C@@H]4[C@@]5(C)CC[C@H](O)C(C)(C)[C@@H]5CC[C@]43C)[C@H]12` (some centres not stated), the IC50 with SH-SY5Y came to 72.2 µM; in assay [1], 60.3 µM; in the assay on BGC-823, 79.3 µM; in the assay on HepG2 it was 83 µM; in the assay on HeLa, 41.6 µM.
With `CC(=O)O[C@H]1CC[C@]2(C)[C@H]3CC=C4[C@@H]5[C@@H](C)[C@H](C)CC[C@]5(C(=O)N5CCC(CCO)CC5)CC[C@@]4(C)[C@]3(C)CC[C@H]2C1(C)C`, the 50% inhibitory concentration (IC50) was 40.1 µM in the assay on SH-SY5Y; 30 µM in assay [1]; 51.3 µM in the assay on BGC-823; 59.4 µM in the assay with HepG2; 12.4 µM in the assay on HeLa.
On the same counts, the results for `CCCOC(=O)[C@]12CC[C@@H](C)[C@H](C)[C@H]1C1=CC[C@@H]3[C@@]4(C)CC[C@H](OC(C)=O)C(C)(C)[C@@H]4CC[C@@]3(C)[C@]1(C)CC2` are > 100 µM, > 100 µM, > 100 µM, > 100 µM and > 100 µM.
Consider `C[C@H]1[C@H](C)CC[C@]2(C(=O)OCCO[N+](=O)[O-])CC[C@]3(C)C(=CC[C@@H]4[C@@]5(C)CC[C@H](O)C(C)(C)[C@@H]5CC[C@]43C)[C@H]12`, for which the IC50 in the assay on SH-SY5Y turned out to be 71.1 µM; in assay [1] it was 68.1 µM; in the assay on BGC-823, 84.2 µM; in the assay on HepG2 it was 79.6 µM; in the assay on HeLa it was 36.2 µM.
Consider `C[C@H]1[C@H](C)CC[C@]2(C(=O)NC(Cc3ccc(O)cc3)C(=O)O)CC[C@]3(C)C(=CC[C@@H]4[C@@]5(C)CC[C@H](O)C(C)(C)[C@@H]5CC[C@]43C)[C@H]12` (some centres not stated), for which the IC50 (in the assay on SH-SY5Y; in assay [1]; in the assay with BGC-823; with HepG2; in the assay with HeLa) was > 100 µM each time.
As to `CC(=O)O[C@H]1CC[C@]2(C)[C@H]3CC=C4[C@@H]5[C@@H](C)[C@H](C)CC[C@]5(C(=O)NCCO)CC[C@@]4(C)[C@]3(C)CC[C@H]2C1(C)C`, the 50% inhibitory concentration (IC50) in the assay on SH-SY5Y is 49.4 µM; in assay [1], 27.8 µM; in the assay with BGC-823, 48.5 µM; with HepG2, 46.6 µM; in the assay on HeLa it was 16.3 µM.
For the compound `C[C@H]1[C@H](C)CC[C@]2(C(=O)N3CCN(CCO)CC3)CC[C@]3(C)C(=CC[C@@H]4[C@@]5(C)CC[C@H](O)C(C)(C)[C@@H]5CC[C@]43C)[C@H]12`, the IC50 with SH-SY5Y is > 100 µM; in assay [1] it was 32.8 µM; with BGC-823 it was 98.3 µM; in the assay with HepG2, > 100 µM; with HeLa it was 52.3 µM.
With `COC(=O)C(Cc1ccc(O)cc1)NC(=O)[C@]12CC[C@@H](C)[C@H](C)[C@H]1C1=CC[C@@H]3[C@@]4(C)CC[C@H](OC(C)=O)C(C)(C)[C@@H]4CC[C@@]3(C)[C@]1(C)CC2` (some centres not stated), the IC50 was > 100 µM in the assay on SH-SY5Y; 35.8 µM in assay [1]; 83 µM in the assay with BGC-823; > 100 µM in the assay on HepG2; 67 µM in the assay on HeLa.
For the compound `O=P1(N(CCCl)CCCl)NCCCO1` (configuration not stated) [CYCLOPHOSPHAMIDE ANHYDROUS], the inhibition in vivo at 15 mg/kg in the assay with H22 [2] turned out to be 55%.
`CCCOC(=O)[C@]12CC[C@@H](C)[C@H](C)[C@H]1C1=CC[C@@H]3[C@@]4(C)CC[C@H](O)C(C)(C)[C@@H]4CC[C@@]3(C)[C@]1(C)CC2`: the half-inhibitory concentration (IC50) in the assay with SH-SY5Y is 92.5 µM; in assay [1], > 100 µM; in the assay on BGC-823 it was 79.7 µM; with HepG2, 89.1 µM; in the assay with HeLa, 48 µM.
Turning to `CCOC(=O)[C@]12CC[C@@H](C)[C@H](C)[C@H]1C1=CC[C@@H]3[C@@]4(C)CC[C@H](OC(C)=O)C(C)(C)[C@@H]4CC[C@@]3(C)[C@]1(C)CC2`, the half-maximal inhibitory concentration (IC50) (in the assay with SH-SY5Y; in assay [1]; in the assay with BGC-823; with HepG2; in the assay on HeLa) was > 100 µM throughout.
With `CCOC(=O)[C@]12CC[C@@H](C)[C@H](C)[C@H]1C1=CC[C@@H]3[C@@]4(C)CC[C@H](O)C(C)(C)[C@@H]4CC[C@@]3(C)[C@]1(C)CC2`, the IC50 in the assay with SH-SY5Y was found to be 66.3 µM; in assay [1], 81.9 µM; in the assay on BGC-823, 69.3 µM; with HepG2, 70.8 µM; in the assay on HeLa it was 29.2 µM.
Regarding `CC(=O)O[C@H]1CC[C@]2(C)[C@H]3CC=C4[C@@H]5[C@@H](C)[C@H](C)CC[C@]5(C(=O)N5CCN(CCO)CC5)CC[C@@]4(C)[C@]3(C)CC[C@H]2C1(C)C`, the half-inhibitory concentration (IC50) in the assay with SH-SY5Y is 11.7 µM; in assay [1], 31 µM; in the assay on BGC-823, 13.9 µM; in the assay with HepG2, 20.5 µM; with HeLa, 7.24 µM.
Turning to `COC(=O)C(CO)NC(=O)[C@]12CC[C@@H](C)[C@H](C)[C@H]1C1=CC[C@@H]3[C@@]4(C)CC[C@H](OC(C)=O)C(C)(C)[C@@H]4CC[C@@]3(C)[C@]1(C)CC2` (some centres not stated), the half-inhibitory concentration (IC50) in the assay with SH-SY5Y worked out at 37.2 µM; in assay [1], 22.3 µM; in the assay with BGC-823, 29 µM; with HepG2, 35.3 µM; in the assay on HeLa, 20.6 µM.
`C[C@H]1[C@H](C)CC[C@]2(C(=O)NCCO)CC[C@]3(C)C(=CC[C@@H]4[C@@]5(C)CC[C@H](O)C(C)(C)[C@@H]5CC[C@]43C)[C@H]12`: the 50% inhibitory concentration (IC50) was 65 µM in the assay with SH-SY5Y; 52.8 µM in assay [1]; 78.3 µM in the assay on BGC-823; 82.4 µM in the assay with HepG2; 32.3 µM in the assay with HeLa.
Consider `C[C@H]1[C@H](C)CC[C@]2(C(=O)O)CC[C@]3(C)C(=CC[C@@H]4[C@@]5(C)CC[C@H](O)C(C)(C)[C@@H]5CC[C@]43C)[C@H]12` [URSOLIC ACID], for which the IC50 in the assay on SH-SY5Y came to 54.6 µM; in assay [1], 21.3 µM; in the assay with BGC-823, 66.4 µM; in the assay on HepG2 it was 68.8 µM; in the assay with HeLa, 33.1 µM. The inhibition in vivo at 150 mg/kg in the assay with H22 [3] stood at 36.2%.
With `CCCCOC(=O)[C@]12CC[C@@H](C)[C@H](C)[C@H]1C1=CC[C@@H]3[C@@]4(C)CC[C@H](O)C(C)(C)[C@@H]4CC[C@@]3(C)[C@]1(C)CC2`, the IC50 was > 100 µM in the assay on SH-SY5Y; > 100 µM in assay [1]; > 100 µM with BGC-823; > 100 µM in the assay on HepG2; 63.2 µM with HeLa.
Consider `CC(=O)O[C@H]1CC[C@]2(C)[C@H]3CC=C4[C@@H]5[C@@H](C)[C@H](C)CC[C@]5(C(=O)N5CCN(CCOCCO)CC5)CC[C@@]4(C)[C@]3(C)CC[C@H]2C1(C)C`, for which the IC50 is 9.51 µM with SH-SY5Y; 38.9 µM in assay [1]; 12.8 µM in the assay with BGC-823; 15.3 µM in the assay on HepG2; 6.28 µM in the assay on HeLa.
Take `C[C@H]1[C@H](C)CC[C@]2(C(=O)N3CCC(CCO)CC3)CC[C@]3(C)C(=CC[C@@H]4[C@@]5(C)CC[C@H](O)C(C)(C)[C@@H]5CC[C@]43C)[C@H]12`: the IC50 in the assay on SH-SY5Y is > 100 µM; in assay [1], > 100 µM; with BGC-823, > 100 µM; in the assay with HepG2 it was > 100 µM; with HeLa it was 67.3 µM.
For `C[C@H]1[C@H](C)CC[C@]2(C(=O)N(CCO)CCO)CC[C@]3(C)C(=CC[C@@H]4[C@@]5(C)CC[C@H](O)C(C)(C)[C@@H]5CC[C@]43C)[C@H]12`, the IC50 in the assay with SH-SY5Y is 21.4 µM; in assay [1] it was 36.9 µM; in the assay with BGC-823, 39.3 µM; in the assay with HepG2, 35.7 µM; in the assay on HeLa, 14.4 µM.
On to `CCCCOC(=O)[C@]12CC[C@@H](C)[C@H](C)[C@H]1C1=CC[C@@H]3[C@@]4(C)CC[C@H](OC(C)=O)C(C)(C)[C@@H]4CC[C@@]3(C)[C@]1(C)CC2`, for which the half-maximal inhibitory concentration (IC50) (in the assay with SH-SY5Y; in assay [1]; in the assay on BGC-823; with HepG2; in the assay on HeLa) was > 100 µM in each case.
With `C[C@H]1[C@H](C)CC[C@]2(C(=O)OCCCO[N+](=O)[O-])CC[C@]3(C)C(=CC[C@@H]4[C@@]5(C)CC[C@H](O)C(C)(C)[C@@H]5CC[C@]43C)[C@H]12`, the IC50 with SH-SY5Y was 89.6 µM; in assay [1], 82.6 µM; with BGC-823, 98.3 µM; in the assay on HepG2, 87.4 µM; with HeLa, 69.4 µM.
Turning to `CC(=O)O[C@H]1C(=O)[C@@]2(C)[C@H]([C@H](OC(=O)c3ccccc3)[C@]3(O)C[C@H](OC(=O)[C@H](O)[C@@H](NC(=O)c4ccccc4)c4ccccc4)C(C)=C1C3(C)C)[C@]1(OC(C)=O)CO[C@@H]1C[C@@H]2O` [PACLITAXEL], the half-inhibitory concentration (IC50) in the assay on SH-SY5Y came out at 8.56 µM; in assay [1], 7.17 µM; with BGC-823, 9.24 µM; in the assay on HepG2, 10.3 µM; in the assay with HeLa it was 6.62 µM.
